According to patent US8546381B2, “Bridged heterocyclic compounds and methods of use” (Medivation Technologies, Inc., priority 2008, dated 2013):

biological target: T1, human recombinant histamine H1 receptor (Homo sapiens, UniProt P35367); assay: Histamine H1 radioligand binding ([3H]Pyrilamine); conditions: compound at 1 μM; inhibition of specific [3H]Pyrilamine binding; read-out: Histamine Binding (1 μM) H1, Percentage Inhibition
T1 construct: expressed in transfected cells; host or cells: CHO cells
T1 sequence (P35367 whole entry): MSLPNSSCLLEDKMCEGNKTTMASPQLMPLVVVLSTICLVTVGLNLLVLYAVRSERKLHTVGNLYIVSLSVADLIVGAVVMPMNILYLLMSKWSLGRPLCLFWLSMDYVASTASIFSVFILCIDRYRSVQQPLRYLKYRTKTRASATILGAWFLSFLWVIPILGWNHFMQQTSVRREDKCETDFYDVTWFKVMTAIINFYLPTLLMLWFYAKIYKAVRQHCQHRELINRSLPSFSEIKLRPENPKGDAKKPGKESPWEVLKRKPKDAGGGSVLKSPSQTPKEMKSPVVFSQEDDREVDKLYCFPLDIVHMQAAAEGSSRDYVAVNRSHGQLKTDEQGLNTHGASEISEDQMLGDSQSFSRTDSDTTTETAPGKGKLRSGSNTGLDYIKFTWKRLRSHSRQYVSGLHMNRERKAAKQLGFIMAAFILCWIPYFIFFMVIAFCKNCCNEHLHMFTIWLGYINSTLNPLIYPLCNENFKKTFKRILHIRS
Protocol: To evaluate in radioligand binding assays the activity of compounds of the invention, human recombinant histamine H1 receptor expressed in Chinese hamster ovary (CHO) cells (De Backer, M. D. et al., Biochem. Biophys. Res. Comm. 197(3):1601, 1993) in a modified Tris-HCl buffer (50 mM Tris-HCl, pH 7.4, 2 mM MgCl2, 100 mM NaCl, 250 mM Sucrose) was used. Compounds of the invention were incubated with 1.2 nM [^3H]Pyrilamine for 180 minutes at 25° C. Non-specific binding was estimated in the presence of 1 μM pyrilamine. Receptor proteins were filtered and washed, the filters were then counted to determine [^3H]Pyrilamine specifically bound. Compounds were screened at 1 μM or lower, using 1% DMSO as vehicle. Biochemical assay results are presented as the percent inhibition of specific binding in Table 2.

Row | Structure (SMILES) | inhibition at 1 µM [%]
1 | Cc1ccc2c(c1)c1c(n2CCc2cncc(Cl)c2)CC2CCC1N2C (centres unmarked) [Compound 88] | 95
2 | CN1C2CCC1c1c(n(CCc3ccc(Cl)cc3)c3ccc(F)cc13)C2 (centres unmarked) [Compound 33] | 86
3 | C/C(=C\n1c2c(c3cc(C)ccc31)C1CCC(C2)N1C)c1ccc(Cl)cc1Cl (centres unmarked) [Compound 163] | 72
4 | CN1C2CCC1c1c(n(CCc3ccc(Cl)cc3)c3ccc(Cl)cc13)C2 (centres unmarked) [Compound 58] | 98
5 | Cc1ccc(CCn2c3c(c4ccccc42)[C@@H]2CC[C@H](C3)N2C)cn1 [Compound 102] | 52
6 | COc1ccc(/C(C)=C/n2c3c(c4cc(Cl)ccc42)C2CCC(C3)N2C)cc1F (centres unmarked) [Compound 136] | 69
7 | CN1C2CCC1c1c(n(CCc3ccc(F)cc3)c3ccc(Cl)cc13)C2 (centres unmarked) [Compound 57] | 96
8 | CN1C2CCC1c1c(n(CCC(=O)N3CCNC(=O)C3)c3ccc(Cl)cc13)C2 (centres unmarked) [Compound 3] | 12
9 | CN1C2CCC1c1c(n(CC(=O)N3CCCC3)c3ccc(Cl)cc13)C2 (centres unmarked) [Compound 60] | 21
10 | Cc1ccc2c(c1)c1c(n2C(=O)Cc2ccc(Cl)cc2)CC2CCC1N2C (centres unmarked) [Compound 162] | 0
11 | Cc1ccc2c(c1)c1c(n2CCc2ccc(C)nc2)CC2CCC1N2C (centres unmarked) [Compound 32] | 94
12 | COc1ccc(CCn2c3c(c4cc(C)ccc42)C2CCC(C3)N2C)cc1 (centres unmarked) [Compound 83] | 98
13 | Cc1cncc(CCn2c3c(c4cc(Cl)ccc42)C2CCC(C3)N2C)c1 (centres unmarked) [Compound 89] | 92
14 | Cc1ccc2c(c1)c1c(n2CCCc2ccc(Cl)cc2)CC2CCC1N2C (centres unmarked) [Compound 85] | 99

biological target: T2, human recombinant histamine H2 receptor (Homo sapiens, UniProt P25021); assay: Histamine H2 radioligand binding ([125I]Aminopotentidine); conditions: compound at 1 μM; inhibition of specific [125I]Aminopotentidine binding; read-out: Histamine Binding (1 μM) H2, Percentage Inhibition
T2 construct: expressed in transfected cells; host or cells: CHO-K1 cells
T2 sequence (P25021 whole entry): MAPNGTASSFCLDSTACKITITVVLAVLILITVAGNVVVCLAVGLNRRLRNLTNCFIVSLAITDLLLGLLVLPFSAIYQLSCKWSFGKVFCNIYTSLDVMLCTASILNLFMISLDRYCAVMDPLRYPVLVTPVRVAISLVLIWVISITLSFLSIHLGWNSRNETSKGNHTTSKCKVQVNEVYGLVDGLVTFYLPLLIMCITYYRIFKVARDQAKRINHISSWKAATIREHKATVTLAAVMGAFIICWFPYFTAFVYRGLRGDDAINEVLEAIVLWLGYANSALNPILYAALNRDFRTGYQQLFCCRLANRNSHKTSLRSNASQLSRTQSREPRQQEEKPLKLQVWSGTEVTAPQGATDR
Protocol: To evaluate in radioligand binding assays the activity of compounds of the invention, human recombinant histamine H2 receptor expressed in Chinese hamster ovary (CHO) K1 cells (Ruat, M., Proc. Natl. Acad. Sci. USA. 87(5):1658, 1990) in a 50 mM Phosphate buffer, pH 7.4 was used. Compounds of the invention were incubated with 0.1 nM [^125I]Aminopotentidine for 120 minutes at 25° C. Non-specific binding was estimated in the presence of 3 μM Tiotidine. Receptor proteins were filtered and washed, the filters were then counted to determine [^125I]Aminopotentidine specifically bound. Compounds were screened at 1 μM or lower, using 1% DMSO as vehicle. Biochemical assay results are presented as the percent inhibition of specific binding in Table 2.

Row | Structure (SMILES) | inhibition at 1 µM [%]
15 | Cc1ccc2c(c1)c1c(n2CCc2cncc(Cl)c2)CC2CCC1N2C (centres unmarked) [Compound 88] | 5
16 | CN1C2CCC1c1c(n(CCc3ccc(Cl)cc3)c3ccc(F)cc13)C2 (centres unmarked) [Compound 33] | 18
17 | C/C(=C\n1c2c(c3cc(C)ccc31)C1CCC(C2)N1C)c1ccc(Cl)cc1Cl (centres unmarked) [Compound 163] | 66
18 | CN1C2CCC1c1c(n(CCc3ccc(Cl)cc3)c3ccc(Cl)cc13)C2 (centres unmarked) [Compound 58] | 52
19 | Cc1ccc(CCn2c3c(c4ccccc42)[C@@H]2CC[C@H](C3)N2C)cn1 [Compound 102] | 3
20 | COc1ccc(/C(C)=C/n2c3c(c4cc(Cl)ccc42)C2CCC(C3)N2C)cc1F (centres unmarked) [Compound 136] | 100
21 | CN1C2CCC1c1c(n(CCc3ccc(F)cc3)c3ccc(Cl)cc13)C2 (centres unmarked) [Compound 57] | 37
22 | CN1C2CCC1c1c(n(CCC(=O)N3CCNC(=O)C3)c3ccc(Cl)cc13)C2 (centres unmarked) [Compound 3] | 2
23 | CN1C2CCC1c1c(n(CC(=O)N3CCCC3)c3ccc(Cl)cc13)C2 (centres unmarked) [Compound 60] | 3
24 | Cc1ccc2c(c1)c1c(n2C(=O)Cc2ccc(Cl)cc2)CC2CCC1N2C (centres unmarked) [Compound 162] | 47
25 | Cc1ccc2c(c1)c1c(n2CCc2ccc(C)nc2)CC2CCC1N2C (centres unmarked) [Compound 32] | 13
26 | COc1ccc(CCn2c3c(c4cc(C)ccc42)C2CCC(C3)N2C)cc1 (centres unmarked) [Compound 83] | 15
27 | Cc1cncc(CCn2c3c(c4cc(Cl)ccc42)C2CCC(C3)N2C)c1 (centres unmarked) [Compound 89] | -1
28 | Cc1ccc2c(c1)c1c(n2CCCc2ccc(Cl)cc2)CC2CCC1N2C (centres unmarked) [Compound 85] | 81

biological target: T3, human recombinant adrenergic α2B receptor (Homo sapiens, UniProt P18089); assay: Adrenergic α2B radioligand binding ([3H]Rauwolscine); conditions: 1 μM; read-out: Adrenergic α2B, inhibition of ligand binding (1 μM)
T3 construct: expressed in transfected cells; host or cells: CHO-K1 cells
T3 sequence (P18089 1-450): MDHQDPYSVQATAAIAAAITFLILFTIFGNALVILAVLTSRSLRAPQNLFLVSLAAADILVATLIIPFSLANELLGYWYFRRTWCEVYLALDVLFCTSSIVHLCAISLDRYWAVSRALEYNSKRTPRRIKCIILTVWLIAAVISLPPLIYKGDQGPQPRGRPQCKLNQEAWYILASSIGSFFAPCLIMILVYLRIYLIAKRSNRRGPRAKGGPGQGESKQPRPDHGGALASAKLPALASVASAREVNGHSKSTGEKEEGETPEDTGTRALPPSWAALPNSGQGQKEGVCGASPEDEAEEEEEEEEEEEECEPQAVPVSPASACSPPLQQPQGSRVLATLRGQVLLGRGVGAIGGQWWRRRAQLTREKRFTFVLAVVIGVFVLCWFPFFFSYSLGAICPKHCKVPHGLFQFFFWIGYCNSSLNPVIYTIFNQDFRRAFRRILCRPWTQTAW
Protocol: To evaluate in radioligand binding assays the activity of compounds of the invention, human recombinant adrenergic α2B receptor expressed in Chinese hamster ovary (CHO-K1) cells (Uhlen S et al. Eur J. Pharmacol. 343(1):93, 1998) in a modified Tris-HCl buffer (50 mM Tris-HCl, pH 7.4, 12.5 mM MgCl2, 1 mM EDTA, 0.2% BSA) was used. Compounds of the invention were incubated with 2.5 nM [^3H]Rauwolscine for 60 minutes at 25° C. Non-specific binding was estimated in the presence of 10 μM Prozosin. Receptor proteins were filtered and washed, the filters were then counted to determine [^3H]Rauwolscine specifically bound. Compounds were screened at 1 μM or lower, using 1% DMSO as vehicle. Biochemical assay results are presented as the percent inhibition of specific binding in Table 3.

Row | Structure (SMILES) | inhibition at 1 µM [%]
29 | Cc1ccc2c(c1)c1c(n2CCc2cncc(Cl)c2)CC2CCC1N2C (centres unmarked) [Compound 88] | 104
30 | CN1C2CCC1c1c(n(CCc3ccc(Cl)cc3)c3ccc(F)cc13)C2 (centres unmarked) [Compound 33] | 100
31 | C/C(=C\n1c2c(c3cc(C)ccc31)C1CCC(C2)N1C)c1ccc(Cl)cc1Cl (centres unmarked) [Compound 163] | 104
32 | CN1C2CCC1c1c(n(CCc3ccc(Cl)cc3)c3ccc(Cl)cc13)C2 (centres unmarked) [Compound 58] | 99
33 | Cc1ccc(CCn2c3c(c4ccccc42)[C@@H]2CC[C@H](C3)N2C)cn1 [Compound 102] | 42
34 | COc1ccc(/C(C)=C/n2c3c(c4cc(Cl)ccc42)C2CCC(C3)N2C)cc1F (centres unmarked) [Compound 136] | 87
35 | CN1C2CCC1c1c(n(CCc3ccc(F)cc3)c3ccc(Cl)cc13)C2 (centres unmarked) [Compound 57] | 98
36 | CN1C2CCC1c1c(n(CCC(=O)N3CCNC(=O)C3)c3ccc(Cl)cc13)C2 (centres unmarked) [Compound 3] | -17
37 | CN1C2CCC1c1c(n(CC(=O)N3CCCC3)c3ccc(Cl)cc13)C2 (centres unmarked) [Compound 60] | 5
38 | Cc1ccc2c(c1)c1c(n2C(=O)Cc2ccc(Cl)cc2)CC2CCC1N2C (centres unmarked) [Compound 162] | 83
39 | Cc1ccc2c(c1)c1c(n2CCc2ccc(C)nc2)CC2CCC1N2C (centres unmarked) [Compound 32] | 82
40 | COc1ccc(CCn2c3c(c4cc(C)ccc42)C2CCC(C3)N2C)cc1 (centres unmarked) [Compound 83] | 94
41 | Cc1cncc(CCn2c3c(c4cc(Cl)ccc42)C2CCC(C3)N2C)c1 (centres unmarked) [Compound 89] | 76
42 | Cc1ccc2c(c1)c1c(n2CCCc2ccc(Cl)cc2)CC2CCC1N2C (centres unmarked) [Compound 85] | 92

biological target: T4, human recombinant serotonin (5-Hydroxytryptamine) 5-HT2C receptor (Homo sapiens, UniProt P28335); assay: Serotonin 5-HT2C radioligand binding ([3H]Mesulergine); conditions: read-out: Serotonin 5-HT2C, inhibition of ligand binding (1 μM)
T4 construct: expressed in transfected cells; host or cells: CHO-K1 cells
T4 sequence (P28335 33-458): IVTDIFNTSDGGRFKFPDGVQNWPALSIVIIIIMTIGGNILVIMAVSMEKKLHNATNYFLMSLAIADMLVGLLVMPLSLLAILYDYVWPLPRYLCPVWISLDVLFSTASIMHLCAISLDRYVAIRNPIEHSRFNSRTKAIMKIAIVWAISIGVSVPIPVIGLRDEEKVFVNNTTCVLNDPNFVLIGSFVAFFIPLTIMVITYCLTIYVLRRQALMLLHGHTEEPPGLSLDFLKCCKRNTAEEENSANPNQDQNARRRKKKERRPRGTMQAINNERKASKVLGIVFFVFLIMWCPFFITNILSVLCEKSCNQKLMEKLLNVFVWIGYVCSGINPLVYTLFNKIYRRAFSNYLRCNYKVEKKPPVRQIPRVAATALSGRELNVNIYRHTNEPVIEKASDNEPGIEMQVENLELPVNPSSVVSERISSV
Protocol: To evaluate in radioligand binding assays the activity of compounds of the invention, human recombinant serotonin (5-Hydroxytryptamine) 5-HT2C receptor expressed in Chinese hamster ovary (CHO-K1) cells (Wolf, W. A. and Schutz, J. S., J. Neurochem. 69:1449, 1997) in a modified Tris-HCl buffer (50 mM Tris-HCl, pH 7.4, 0.1% Ascorbic Acid, 10 μM Pargyline) was used. Compounds of the invention were incubated with 1 nM [^3H]Mesulergine for 60 minutes at 25° C. Non-specific binding was estimated in the presence of 1 μM Mianserin. Receptor proteins were filtered and washed, the filters were then counted to determine [^3H]Mesulergine specifically bound. Compounds were screened at 1 μM or lower, using 1% DMSO as vehicle. Biochemical assay results are presented as the percent inhibition of specific binding in Table 4.

Row | Structure (SMILES) | inhibition at 1 µM [%]
43 | Cc1ccc2c(c1)c1c(n2CCc2cncc(Cl)c2)CC2CCC1N2C (centres unmarked) [Compound 88] | 31
44 | CN1C2CCC1c1c(n(CCc3ccc(Cl)cc3)c3ccc(F)cc13)C2 (centres unmarked) [Compound 33] | 64
45 | C/C(=C\n1c2c(c3cc(C)ccc31)C1CCC(C2)N1C)c1ccc(Cl)cc1Cl (centres unmarked) [Compound 163] | 94
46 | CN1C2CCC1c1c(n(CCc3ccc(Cl)cc3)c3ccc(Cl)cc13)C2 (centres unmarked) [Compound 58] | 84
47 | Cc1ccc(CCn2c3c(c4ccccc42)[C@@H]2CC[C@H](C3)N2C)cn1 [Compound 102] | -6
48 | COc1ccc(/C(C)=C/n2c3c(c4cc(Cl)ccc42)C2CCC(C3)N2C)cc1F (centres unmarked) [Compound 136] | 100
49 | CN1C2CCC1c1c(n(CCc3ccc(F)cc3)c3ccc(Cl)cc13)C2 (centres unmarked) [Compound 57] | 88
50 | CN1C2CCC1c1c(n(CCC(=O)N3CCNC(=O)C3)c3ccc(Cl)cc13)C2 (centres unmarked) [Compound 3] | 2
51 | CN1C2CCC1c1c(n(CC(=O)N3CCCC3)c3ccc(Cl)cc13)C2 (centres unmarked) [Compound 60] | 15
52 | Cc1ccc2c(c1)c1c(n2C(=O)Cc2ccc(Cl)cc2)CC2CCC1N2C (centres unmarked) [Compound 162] | 93
53 | Cc1ccc2c(c1)c1c(n2CCc2ccc(C)nc2)CC2CCC1N2C (centres unmarked) [Compound 32] | -3
54 | COc1ccc(CCn2c3c(c4cc(C)ccc42)C2CCC(C3)N2C)cc1 (centres unmarked) [Compound 83] | 82
55 | Cc1cncc(CCn2c3c(c4cc(Cl)ccc42)C2CCC(C3)N2C)c1 (centres unmarked) [Compound 89] | 26
56 | Cc1ccc2c(c1)c1c(n2CCCc2ccc(Cl)cc2)CC2CCC1N2C (centres unmarked) [Compound 85] | 89
